Data taken from US6852337B2, “Carvedilol-galenics” (Roche Diagnostics GmbH, priority 1998, dated 2005).

Assay: In-vitro dissolution rate, USP XXII paddle method, aqueous buffer pH 4.5
Assay type: physicochemical
Description: In the case of drugs which cannot develop their action in the gastrointestinal zone itself, release from the drug form in the gastrointestinal tract and the subsequent resorption are the necessary condition for a therapeutic effect. Problems arise in this connection with those active substances which, because of their poor solubility or their low dissolution speed, attain so low a concentration in the gastrointestinal tract in the aqueous medium or because of obstructed release from the system of the other adjuvants, that the dissolution of the active substance is the step which determines the rate in connection with the resorption. […] The solubility and release rate are determined by standard methods, e.g. in accordance with the paddle method of USP XXII.
The in-vitro dissolution rates in this and the following examples were determined in accordance with USP XXII, paddle method in an aqueous buffer pH 4.5

Row | In-vitro dissolution rate after 10 minutes | In-vitro dissolution rate after 20 minutes | In-vitro dissolution rate after 30 minutes | In-vitro dissolution rate after 60 minutes | Compound
1 | 31% | 43% | 50% | 58% | OC(COc1cccc2[nH]ccc12)CN1CCC(COc2ccccc2)CC1 (centres unmarked) [Active substance A, 4-[2-hydroxy-3-[4-(phenoxymethyl)piperidino]-propoxy]-indole]
2 | 36% | 46% | 49% | 56% | COc1ccccc1OCCNCC(O)COc1cccc2[nH]c3ccccc3c12 (centres unmarked) [Active substance B, carvedilol]
